Source: ChEMBL document CHEMBL3124856, “Design, synthesis, and pharmacological evaluation of a novel series of pyridopyrazine-1,6-dione γ-secretase modulators” (J Med Chem, 2014)

Legend:
[1] = Apparent intrinsic clearance in human liver microsomes; assay type: ADME; conditions: read-out: CLH(app)
MDR1 (human) = assay: Efflux ratio of permeability in MDCK cells expressing human MDR1; assay type: ADME, cell-based, Canis lupus familiaris; conditions: dog
Gamma-secretase = assay: Modulation of gamma-secretase (unknown origin) expressed in CHO cells overexpressing human wild type APP assessed as reduction of amyloid beta 42 level after 24 hrs by ELISA; assay type: cell-based
[2] = Apparent intrinsic clearance in rat liver microsomes; assay type: ADME; conditions: read-out: CLH(app)

| Structure (SMILES) | CLint scaled [1] [mL/min/kg] | efflux ratio (MDR1 (human)) | IC50 (Gamma-secretase) [nM] | CLint scaled [2] [mL/min/kg] |
| --- | --- | --- | --- | --- |
| Cc1cn(-c2ccc3n(c2=O)CCN(CCOc2ccc(C(F)(F)F)cc2)C3=O)cn1 | < 9.7 | 1.5 | 1270 | 40.3 |
| COc1cc(C(=O)NCc2cccc(C(F)(F)F)c2)ccc1-n1cnc(C)c1 | 27.8 |  | 660 |  |
| Cc1cn(-c2ccc3n(c2=O)CCN(CCOc2ccccc2Cl)C3=O)cn1 | < 10.4 | 1.5 | 1500 | 117 |
| Cc1cn(-c2ccc3n(c2=O)CCN(CCOc2cccc(C(F)(F)F)c2)C3=O)cn1 | < 8 | 1.2 | 530 | 79.4 |
